Publication PMC10924921, “Mi-2β promotes immune evasion in melanoma by activating EZH2 methylation” (Nature Communications, 2024)

Key:
[1] = system: H3K27me3 and H3K27ac in melanoma cells (B16F10, PM); experiment: Western blot of epigenetic modifications of H3; type: cell-based, mouse
Method: The lysis buffer (50 mM Tris pH 7.4, 1% Triton X-100, 0.5 mM EDTA, 0.5 mM EGTA, 150 mM NaCl, 10% glycerol, 1 mM phenylmethylsulfonyl fluoride and complete protease inhibitor cocktail (Roche)) were used to prepare the whole-cell lysates, which was followed by homogenization and centrifuge (14,000 rpm for 15 min at 4 °C). Pierce BCA Protein Assay Kit (Thermo Fisher Scientific) was used to detect protein concentration. After SDS-PAGE separation and PVDF membrane (BIO-RAD) transfer of the proteins, the specific primary was probed at 4 °C for overnight, before incubated with corresponding horseradish peroxidase (HRP)-conjugated 2nd antibodies. Pierce ECL Western Blotting Substrate (Thermo Fisher Scientific) was used for protein detection. Antibodies were: anti-Mi-2β(1:1000), anti-EZH2 (ab70469, Abcam) (1:1000), anti-β-actin-peroxidase antibody (AC15) (1:5000) and anti-rabbit secondary antibody (A-4914) (1:10,000). Antibody information have shown in Supplementary data 3.
Supplementary Figure 10. […] A mouse survival curve is shown, with log-rank test for mouse survival P value. b,c The epigenetic modifications of H3 (H3K27ac, H3K27me1 and H3K27me3) were measured in B16F10 cells stimulated with GSK126 or Z36-MP5 as indicated (n = 3, independent experiments). d The amount of secreted Cxcl9 and Cxcl10 was measured by ELISA in […]

[2] = system: tumor-infiltrating lymphocytes in BRafV600E/Ptennull melanoma; experiment: Flow cytometry of tumor-infiltrating lymphocytes, genetically engineered model; type: in vivo, mouse
Method: Mi-2β^lox/lox mice were generated and generously provide by Dr. Georgopoulos lab (Massachusetts General Hospital at Harvard Medical School)[31]. Tyr::CreER;BRaf^CA;Pten^lox/lox mice were purchased from Jackson laboratories (Stock No: 013590). All strains of mice were on the background of C57BL/6J background. Gene activation and silencing were induced with intraperitoneal (i.p.) administration of 100 µL/mouse/day tamoxifen (20 mg/mL) for constant 5 days. […] Tumor growth was then monitored each the other day. […] When the following conditions occur, the mouse is regarded as dead and euthanized, including weight loss greater than 15%; significant abdominal distension, especially if it begins to compromise respiratory ability of animal; hunched posture; failure to eat or drink; absence of (or abnormal) feces or urine output; reluctance to move or abnormal gait; Discharges or hemorrhage. Abnormal behavior or vocalizations and tumor size exceeded 1 cm^3. All animal experiments were done according to protocols approved by the ethics committee review board of Boston University and in accordance with the guidelines set forth by the US National Institutes of Health and The ethics committee review board of The 2nd Hospital and School of Medicine, Zhejiang University. […]

Cn1c(=O)[nH]c2ccc(-c3cccc(C(=O)NC4CCn5ccnc5C4)c3)cc21 (stereo not shown) [Z36-MP5]
H3K27ac level ([1]; PM cells, compared to GSK126 treatment): only slightly increased
level of H3K27me3 ([1]; melanoma cells): repressed
CD4+ T-cell and Treg populations [2]: not affected
CD8+ T-cell population [2]: moderately induced
